Key:
[1] = test system: H1N1 (influenza A/New Caledonia/20/99); assay: Antiviral effect on A549 cells infected with H1N1; assay type: cell-based, H1N1 A/New Caledonia/20/99 virus; details: Human A549 cells, MOI of 0.1, 48 h post-infection, MUNANA hydrolysis readout
Procedure: The antiviral effect of the compounds of the invention has been tested on A549 cell lines infected with H1N1 (influenza A/New Caledonia/20/99).
Human A549 cells (80,000 cells/well in a 96 well plate) were treated with a range of concentration of test molecules and immediately infected by H1N1 A/New Caledonia/20/99 virus (clinical isolate) at MOI of 0.1 in DMEM/1% Penicillin/streptomycin supplemented with 0.25 μg/ml TPCK trypsin (Sigma) and incubated at 37° C. in 5% CO2. 48 h post-infection, supernatants (25 μl) were collected and transferred into a 96-well black flat-bottom plate, mixed with 25 μl PBS with Ca++/Mg++(Thermo Fisher) and 50 μl of 2′-(4-Methylumbelliferyl)-α-D-N-acetylneuraminic acid sodium salt hydrate stock-solution (20 μM, MUNANA, Sigma). Plates were incubated 1 h at 37° C. and reaction is stopped by adding 100 μl of Stop Solution (glycine 0.1 M pH10.7/25% ethanol). The amount of fluorescent product released by MUNANA hydrolysis (4-MU) was measured in a Tecan spectrophotometer with excitation and emission wavelengths of 365 and 450 nm respectively.

NFκB = NFκB reporter assay, TNFα stimulation; assay type: cell-based; details: Homo sapiens; A549 NFκB-NanoLuciferase reporter cells, 4 ng/ml TNFα, 6 hours
Description: Compounds of the present invention have been tested for their capacity to inhibit NFκB.
The NFκB reporter construct was made by cloning 5 NFκB responsive elements upstream of a NanoLuciferase reporter gene flanked by AAVS1 genomic sequences.
NFκB Responsive element fused with NanoLuciferase and SV40 late Poly(A) signal was amplified from pNL3.2-NFκB-Nluc (Promega) using NFκB-NLUC-F and NFκB-NLUC-R primers and inserted by Infusion (TaKaRa) in AAVS1 SA-2A-puro-pA donor plasmid (Hockemeyer et al, Nat Biotechnol. 2009, 27, 851-7) digested by Sal1. pCRISPR AAVS1-T2 expressing a guide RNA (gRNA) to target human AAVS1 (T2 target sequence) was constructed by inserting AAVS1-T2A hybridized primers in pLentiCRISPR v2-blast (Sanjana et al, Nat Methods. 2014, 11, 783-4) digested by Bsmb1.
A549 cells were transfected by the plasmids and puromycine selected for 5 days (1 μg mL-1). Then clones were obtained by limiting dilution and selected to maximize TNF dependent NFkB-NanoLuciferase induction.
The reporter cells were seeded on a 96-well plate for overnight with DMEM including 10% FBS. Test compounds were added at varying concentrations. The cells then were treated with 4 ng/ml TNFα (Peprotech, ref E251) in DMEM+10% FBS. NanoGlo luciferase assay (Promega) was carried out 6 hours later. Luminescence was measured using a Spark 20M spectrofluorimeter (Tecan). Values were normalized to the luminescence measured in untreated cells.

[2] = biological target: T1, CISD1 Gene Product (mitoNEET) (Homo sapiens, UniProt Q9NZ45); assay: Stability of Fe—S cluster binding of purified NEET protein mitoNEET; assay type: biochemical; details: for Time (in minutes) to achieve 50% loss of bound cluster (Absorbance 458 nm), CISD1 Gene Product (mitoNEET) / Residual cluster bound at end of experiment (Percentage Absorbance 458 nm at time zero), CISD1 Gene Product (mitoNEET): pH 6, 37° C., 1:3 protein:compound molar ratio; for Time (in minutes) to achieve 50% loss of bound cluster (Absorbance 458 nm), CISD1 Gene Product (mitoNEET): 6 μM compound, run time 180 minutes, Vehicle Control 80; for Residual cluster bound at end of experiment (Percentage Absorbance 458 nm at time zero), CISD1 Gene Product (mitoNEET): end of 180 minutes, Vehicle Control 16%; for stabiliser or destabiliser of Fe—S cluster binding, CISD1 Gene Product (mitoNEET): time to 50% Fe—S cluster bound loss changed by more than 25% vs Control sample, at the concentrations tested
T1 sequence (Q9NZ45 33-108 limits assumed): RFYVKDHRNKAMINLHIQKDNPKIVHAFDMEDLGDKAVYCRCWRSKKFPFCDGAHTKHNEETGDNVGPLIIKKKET
Procedure: (§1) The modulator effect on the NEET proteins encoded by human CISD1, CISD2, and CISD3 genes by the compounds of the invention has been tested and is reported below. Particularly, the biochemical function of the NEET proteins is measured by the stability of Fe—S cluster binding of the purified NEET proteins.
(§2) The Fe—S cluster binding capacity of NEET proteins is known to be coordinated by four amino-acids in a stretch of 16 (three Cysteine and one Histidine). As the lability of the Fe—S cluster of NEET proteins is sensitive to the environment, cluster stability measurements are one of the measures of interactions of NEET proteins with small molecules and compounds. NEET protein/2Fe-2S cluster stability can be assessed by monitoring the decay in absorbance of its characteristic 458-nm peak (characteristic of the oxidized 2Fe-2S cluster) over time. Each NEET protein (mitoNEET, NAF-1 and Miner 2) was tested for its Fe—S binding in the absence or presence of a compound according to the invention (see table 2 below). The rate of cluster release (time in minutes to achieve 50% loss of bound Fe—S cluster) was compared for each NEET protein in the presence of one of the compounds of the invention (in a 1:3 protein:compound molar ratio) relative to each protein alone.
(§3) At pH 6, all the three NEET proteins (mitoNEET, NAF-1 and Miner 2) have a characteristic rate of loss of the bound Fe—S cluster that can be measured by the decrease of absorbance at wavelength 458 nm over time, using a spectrophotometer. Thus, Bis-Tris buffer (100 mM Bis-Tris pH6, 100 mM Nacl) was used at pH 6 to dilute either DMSO (Blank sample: Bis-Tris Buffer pH 6, 6 μM DMSO), DMSO and one of the three NEET proteins (Control sample: Bis-Tris Buffer pH 6, 6 μM DMSO, 2 μM purified NEET protein) or DMSO, one of the three NEET proteins and a compound of the invention (Test sample: Bis-Tris Buffer pH 6, 6 μM DMSO, […], 6 μM compound of the invention).
(§4) A reaction mix containing DMSO diluted in the Bis-Tris Buffer with or without a compound of the invention was prepared. The purified NEET protein was the last component added to the reaction mix which was then aliquoted into 4 replicates in 96 wells plates. The absorbance at wavelength 458 nm was taken at 5 minutes intervals at 37° C. with a spectrofluorimeter. The assay run time for CISD2 gene product (NAF-1) was 500 minutes and 180 minutes for both the CISD 1 gene product (mitoNEET) and the CISD3 gene product (Miner 2).
(§5) In addition to time monitoring, residual bound Fe—S cluster to NEET protein was measured at the final point of the spectrometry assay for each Test sample and compared to the Control sample data (in parenthesis table 2). This residual binding is measured by the differential percentage between the absorbance 458 nm at time zero and the absorbance 458 nm at the end of the experiment (i.e. respectively 500 or 180 minutes as described hereabove), showing the percentage of NEET protein still able to bind a Fe—S cluster.
(§6) Analysis of the absorbance enables the time for which 50% loss of bound Fe—S cluster is reached (i.e. a 50% absorbance decrease at 458 nm) for each Test sample and each Control sample (in parenthesis table 2) to be determined. The data are then compared to determine whether the compound of the invention stabilizes or destabilizes the NEET protein/Fe—S cluster binding.

[3] = biological target: T2, CISD2 Gene Product (NAF-1) (Homo sapiens, UniProt Q8N5K1); assay: Stability of Fe—S cluster binding of purified NEET protein NAF-1; assay type: biochemical; details: for Time (in minutes) to achieve 50% loss of bound cluster (Absorbance 458 nm), CISD2 Gene Product (NAF-1) / Residual cluster bound at end of experiment (Percentage Absorbance 458 nm at time zero), CISD2 Gene Product (NAF-1): pH 6, 37° C., 1:3 protein:compound molar ratio; for Time (in minutes) to achieve 50% loss of bound cluster (Absorbance 458 nm), CISD2 Gene Product (NAF-1): 6 μM compound, run time 500 minutes, Vehicle Control 310; for Residual cluster bound at end of experiment (Percentage Absorbance 458 nm at time zero), CISD2 Gene Product (NAF-1): end of 500 minutes, Vehicle Control 3%
T2 sequence (Q8N5K1 57-135 limits assumed): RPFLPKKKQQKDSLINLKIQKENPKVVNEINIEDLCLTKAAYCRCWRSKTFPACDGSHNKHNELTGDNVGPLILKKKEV
Procedure: as §1, §2, §3, §4, §5, §6

[4] = biological target: T3, CISD3 Gene Product (Miner2) (Homo sapiens, UniProt P0C7P0); assay: Stability of Fe—S cluster binding of purified NEET protein Miner2; assay type: biochemical; details: for Time (in minutes) to achieve 50% loss of bound cluster (Absorbance 458 nm), CISD3 Gene Product (Miner2) / Residual cluster bound at end of experiment (Percentage Absorbance 458 nm at time zero), CISD3 Gene Product (DMSO 11%): pH 6, 37° C., 1:3 protein:compound molar ratio; for Time (in minutes) to achieve 50% loss of bound cluster (Absorbance 458 nm), CISD3 Gene Product (Miner2): 6 μM compound, run time 180 minutes, Vehicle Control 60; for Residual cluster bound at end of experiment (Percentage Absorbance 458 nm at time zero), CISD3 Gene Product (DMSO 11%): end of 180 minutes, Vehicle Control 11%; for stabiliser or destabiliser of Fe—S cluster binding, CISD3 Gene Product (Miner2): time to 50% Fe—S cluster bound loss changed by more than 25% vs Control sample, at the concentrations tested
T3 sequence (P0C7P0 15-127): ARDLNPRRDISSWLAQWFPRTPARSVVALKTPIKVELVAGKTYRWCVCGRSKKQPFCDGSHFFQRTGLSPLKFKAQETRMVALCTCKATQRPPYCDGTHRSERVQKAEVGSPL
Procedure: as §1, §2, §3, §4, §5, §6

[5] = Influenza A virus, H1N1, A549, 48 h

SMILES	IC50 [1, 5] [nM]	EC50 (NFκB) [nM]	Time (in minutes) to achieve 50% loss of bound cluster (Absorbance 458 nm), CISD1 Gene Product (mitoNEET) [2]	Residual cluster bound at end of experiment (Percentage Absorbance 458 nm at time zero), CISD1 Gene Product (mitoNEET) [2] [%]	stabiliser or destabiliser of Fe—S cluster binding, CISD1 Gene Product (mitoNEET) [2]	Time (in minutes) to achieve 50% loss of bound cluster (Absorbance 458 nm), CISD2 Gene Product (NAF-1) [3] [min]	Residual cluster bound at end of experiment (Percentage Absorbance 458 nm at time zero), CISD2 Gene Product (NAF-1) [3] [%]	Time (in minutes) to achieve 50% loss of bound cluster (Absorbance 458 nm), CISD3 Gene Product (Miner2) [4]	Residual cluster bound at end of experiment (Percentage Absorbance 458 nm at time zero), CISD3 Gene Product (DMSO 11%) [4] [%]	stabiliser or destabiliser of Fe—S cluster binding, CISD3 Gene Product (Miner2) [4]	IC50 [1] [nM]	stabiliser or destabiliser of Fe—S cluster binding, CISD2 Gene Product (NAF-1) ([3]; time to 50% Fe—S cluster bound loss changed by more than 25% vs Control sample, at the concentrations tested)
COc1ccc(C(=O)Nc2sc3c(c2C(=O)O)CCC(C(C)(C)C)C3)cc1 (centres unmarked) [#1]	54.8	160										
CC(C)(C)C1CCc2c(sc(NC(=O)c3ccc(Cl)cc3)c2C(=O)O)C1 (centres unmarked) [#10]	26	300	during 180 minutes	62	stabilisers	290	42	during 180 minutes	56	Stabilisers		
CC(C)(C)C1CCc2c(sc(NC(=O)c3ccccc3F)c2C(=O)O)C1 (centres unmarked) [#69]		320									120	
O=C(Nc1sc2c(c1C(=O)O)C(c1ccccc1)CCC2)c1ccccc1 (centres unmarked) [#112]	1370		100 min	29	stabilisers	425	23	during 180 minutes	64	Stabilisers		Stabilisers
CC(C)(C)C1CCc2c(sc(NC(=O)C3CCCCC3)c2C(=O)O)C1 (centres unmarked) [#115]	1470		100 min	34	stabilisers	240	15	65 min	28			
